Assays:
[1] = test system: α1A-AR; test: Ca2+ transient response (FLIPR, fluo3) in α1A-AR transduced HEK-293/EBNA cells; type: cell-based; settings: 100 μM Iso, α1A-AR_HEK-293/EBNA
Protocol: Prior to experiments, cells were transduced with baculovirus strains designed for transient expression of α1A-AR or aldehyde oxidase (negative control). This was performed by incubating cells with virus (MOI 100–150) for 3 to 4 h, followed by exchange into fresh serum free growth medium supplemented with 4 mM sodium butyrate (NaBu). Cells were grown for another 14 to 18 h and then examined for agonist-evoked responses in transient Ca^2+ release, IP accumulation or pERK activation assays. The surface receptor expression density was determined by flow cytometry via immunofluorescence labeling of an N-terminal HA epitope tag on the receptor and radioligand binding in partially purified membranes.
Cells were resuspended in Hank’s balanced salt solution (Invitrogen) supplemented with 2 mM CaCl2, 10 mM HEPES pH 7.4, 2.5 mM probenecid, plus 1g/L each of glucose and bovine serum albumin (BSA), and seeded in poly-D-lysine coated 96-well black plates with transparent bottom (Costar) at a density of 50,000 cells/0.1 mL per well. Cells were then incubated for 1 h at 37°C with an additional 0.1 mL of buffer containing 4 μM fluo3-AM that was diluted from a stock solution containing 1 mM fluo3-AM dye in DMSO with 10% pluronic acid. After dye loading incubation, plates were washed twice with 100 μL of buffer and refilled with 100 μL of assay buffer. In experiments testing the effect of antagonists, 25 μL of buffer from wells of washed cells were replaced with 25 μL of vehicle or 4× antagonist solution. Pre-incubation of ligand with dye-loaded cells proceeded for 5–30 minutes immediately prior to measurements of agonist-evoked responses. Agonist-evoked Ca^2+ mobilization responses of cell populations were monitored at room temperature simultaneously in all wells of the assay plate using the plate-imaging fluorometric reader FLIPR (MDS Analytical Technologies, Sunnyvale, CA). […] The amplitudes of Ca^2+ transient responses are reported as ΔF/F0, or fold-change in Ca^2+ dye fluorescence relative to the baseline signal ΔF/F0 = (F-F0)/F0 +1 (where ΔF is maximal fluorescence intensity observed following agonist application, F0 = baseline fluorescence, or average intensity measured over the 10 s interval prior to agonist application). Image acquisition rates were varied from 1 Hz during the first 100 s of measurements to 0.5 Hz for the remaining time of the recording.
Graphs shown reflect either pooled or representative data (see figure legends). For concentration-response analysis, results from Ca^2+ mobilization experiments were plotted as ΔF/F0 vs. agonist concentration and fit to a sigmoidal concentration-response equation using the GraphPad Prism software package. In cases where biphasic concentration-response curves were observed data were fit to a two-site concentration-response model: F(X)=R0+(Rmax−R0)[Fr1/(1+10^X-logEC50,1)+(1−Fr1)/(1+10^X-logEC50,2)] (1) , where X is the logarithm of the agonist concentration, R0 and Rmax are respectively the response minimum and maximum; Fr1 is the response fraction attributable to receptor characterized by half effective concentration of the first response phase (EC50,1), with the reminder response attributable to the second half effective concentration (EC50,2). For radioligand binding experiments, B max values were calculated from maximum binding using the equation B max = (SB × ([…] + [L])/[L]), where SB is the specific binding expressed as fmol per mg of membrane protein, and [L] is the ligand concentration.

[2] = target: T1, α1A-AR (Homo sapiens, UniProt P35348); test: IP accumulation in α1A-AR_CHO stable cells; type: cell-based; set-up: expressed in transfected cells; settings: Iso up to 1 mM
T1 sequence (P35348 1-466): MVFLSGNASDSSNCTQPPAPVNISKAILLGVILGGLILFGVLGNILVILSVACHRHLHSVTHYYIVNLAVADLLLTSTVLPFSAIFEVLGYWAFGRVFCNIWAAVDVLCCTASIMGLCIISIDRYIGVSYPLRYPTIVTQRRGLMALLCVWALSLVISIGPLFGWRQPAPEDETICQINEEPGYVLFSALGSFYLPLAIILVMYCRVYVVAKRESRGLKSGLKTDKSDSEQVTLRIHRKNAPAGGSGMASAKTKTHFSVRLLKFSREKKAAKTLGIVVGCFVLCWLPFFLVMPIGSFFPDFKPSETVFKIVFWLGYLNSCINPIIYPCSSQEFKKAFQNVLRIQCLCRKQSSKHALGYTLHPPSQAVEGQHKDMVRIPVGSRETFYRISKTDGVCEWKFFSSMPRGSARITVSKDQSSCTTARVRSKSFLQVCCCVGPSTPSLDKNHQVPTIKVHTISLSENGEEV
Protocol: After 10–20 minutes, 10 μL of agonist was added followed by incubation for 5 to 30 minutes. Stimulation was stopped by addition of lysis buffer. Second messenger levels were determined using a homogeneous immunoassay method with time-resolved FRET detection (IP-One HTRF, Cisbio International) according to protocols provided by the supplier. Sample fluorescence was measured with a Nanoscan plate reader (IOM, Berlin). Each data point represents the average of quadruplicate determinations and each experiment was performed at least two times independently.
IP1, IP2, and IP3 levels were determined via LC-MS. Plots are representative of three independent experiments with each data point being the average of triplicates.

CC(C)NCC(O)c1ccc(O)c(O)c1 (stereo not drawn) [Iso, isoproterenol]
decline from peak amplitude within 100 sec [1]: > 75%
delay from addition of agonist to the rise in Ca2+ [1]: 5 to 10 s
IP accumulation [2]: no IP accumulation could be detected

Source: publication PMC4301629 (PLoS ONE, 2015)
